Read-outs that look alike come from different tables or passages of the source.
What was measured:
[1] = target: T1, LSD1-HDAC1-CoREST complex (Homo sapiens, UniProt O60341); assay: LSD1 HRP-coupled demethylase assay, SP2509/SP2577 analogues; format: biochemical
T1 construct: full length native LSD1 (UniProt ID: O60341); made in house; host or cells: HEK 293F cells (co-transfection, pcDNA3 vectors)
Method: The analogues synthesised were then tested for their ability to inhibit LSD1 using purified LSD1-HDAC1-CoREST complex (Fig. 2B). We used an established fluorescent read out horseradish peroxidase (HRP) assay to monitor LSD1 enzymatic activity in the CoREST complex[8] (see ESI ^† for full details).
(§1) 2. Supplementary Information: Biology
(§2) 2.1. LSD-HDAC1-CoREST expression and purification
(§3) Lysis Buffer (Buffer A) Wash Buffer (Buffer B)
(§4) • 50 mM Tris/Cl pH 7.5 • 50 mM Tris/Cl pH 7.5
(§5) • 50 mM Potassium Acetate • 50 mM Potassium Acetate […]
(§6) Cleavage Buffer (Buffer C) Gel Filtration Buffer (Buffer D)
(§7) • 50 mM Tris/Cl pH 7.5 Filtered at vacuum.
(§8) • 50 mM Potassium Acetate • 50 mM Tris/Cl pH 7.5
(§9) • 5 % v/v Glycerol • 50 mM Potassium Acetate
(§10) • 0.5 mM tris(2- • 0.5 mM TCEP carboxyethyl)phosphine (TCEP)
(§11) The CoREST ternary complex was comprised of full length native LSD1 (UniProt ID: O60341), full length HDAC1 (UniProt ID: Q13547) and N-terminally truncated RCOR1 (86-485aa) (UniProt ID:
(§12) Q9UKL0). Protein constructs were cloned into pcDNA3 vector. The RCOR1 constructs contained an N-terminal (His)10(Flag)3 tag followed by a Tev protease cleavage site. The constructs for ternary complex were co-transfected into suspension-grow HEK 293F cells (Thermofisher Scientific) with polyethylenimine (PEI) (Sigma) and harvested after 48 hours. This section of the procedure was carried out as described previously in literature.11,12
(§13) Cell pellets from 1.2 L culture were defrosted, and buffer A (30 mL) was added. The solution was sonicated (Soniprep 150) in an beaker of ice using a 9 mm probe at 10 ampules; operated with 10 […]
2.2. SP2509/SP2577 analogues LSD1 HRP-coupled demethylase assay protocol The commercial reagents for the assay were HRP and Amplex® Ultrared, which are available to purchase from ThermoFisher (31490) and Invitrogen (10737474), respectively. HRP was made up to 8 mg/mL stock solution in 1xPBS buffer, divided into 10 µL aliquots, snap-frozen in liquid nitrogen and stored at -80 °C. Amplex® Ultrared was made up to 10 mM solution in DMSO, divided into 20 µL aliquots and wrapped in foil, away from light and stored at -20 °C. For each assay experiment, CoREST complex was diluted to 500 nM in assay buffer (20 mM HEPES pH 7.5 and 50 mM NaCl).
HRP was defrosted by diluting each aliquot in 90 µL 1xPBS solution, making a 0.8 mg/mL solution.
Amplex® Ultrared was made up to 200 µM in assay buffer. HRP and Amplex® Ultrared were pre-mixed before addition to the plate. H3K4Me2 substrate (4 mM in deionised water) was diluted to 300 µM in assay buffer. All stocks were stored on ice during assay preparation.
The assay was carried out using a ‘black well’ 96 well plate (Corning no. 3915) in a reaction volume of 100 μL. The final concentrations in the assay were as follows: 50 nM CoREST complex, 10 μM Amplex® UltraRed, 0.04 mg/mL HRP and 15 μM H3K4Me2 peptide substrate. The final DMSO concentration in each well was 1.1 %. Three wells of each experiments were designated ‘background controls’ and contained 85 μL assay buffer, premixed Amplex® UltraRed and HRP (10 µL) and H3K4Me peptide substrate (300 μM, 5 µL).
A stock solution of inhibitor (1 -5 mM in DMSO) was subjected to an inhibitor dilution series, in Eppendorf tubes, in 100 % DMSO. Each new inhibitor stock (4 μL) was diluted in assay buffer (1 in 75) within a new Eppendorf set with assay buffer (20 mM HEPES pH 7.5 and 50 m M NaCl), ensuring the percentage of DMSO was consistent throughout the series. To each well of interest, Inhibitor in assay buffer (75 μL) was added, and CoREST complex (500 nM, 10 µL) was added thereafter. The plate was placed on a rocker and pre -incubated for 30 mins. To each well, premixed Amplex® UltraRed and HRP (10 µL) was added before H3K4Me 2 peptide substrate in assay buffer solution (300 μM, 5 µL) was added to the wall of the plate. The plate was covered in foil and spun down for one minute before being placed in the plate reader. The final percentage concentration of DMSO in […]

[2] = target: T2, HDAC1-CoREST-LSD1 complex (Homo sapiens, UniProt O60341); assay: LSD1 HRP-coupled demethylase assay, TCP analogues; format: biochemical; conditions: for LSD1 inhibition at 50 μM: single concentration 50 μM, compared to no compound treatment control
T2 construct: full length native LSD1 (UniProt ID: O60341); made in house; host or cells: HEK 293F cells (co-transfection, pcDNA3 vectors)
Method: We then evaluated LSD1 inhibition in the LSD1-HDAC1-CoREST complex using the established horseradish peroxidase (HRP) assay.[8]
as §1, §2, §3, §4, §5, §6, §7, §8, §9, §10, §11, §12, §13
Components and concentrations for the HRP-coupled demethylase assay […]
The assay components are shown at their final concentrations per well in the table above. CoREST complex (HDAC 1/RCOR1/LSD1) was added to the assay buffer alongside either DMSO or the relevant inhibitor at the desired concentration on black-walled 96 well plates. Alongside this was another control, with DMSO but no CoREST or inhibitor. Plates were spun to 3000 rpm between each addition of a reagent. Plates were incubated at 20 °C for 30 mins, following which HRP/Amplex Ultrared (1:1 mixture) and peptide was added. Plates were spun, then read on an PerkinElmer 2030 Explorer plate reader, with excitation of 530 nm and […] of 590 nm, with 7 readings taken over […]
Components, where bought in, are listed below:
HRP – Pierce™ Horseradish Peroxidase, Invitrogen
H3K4me2 peptide – Histone H3 dimethyl lysine-4 peptide, Enzo Life Sciences Amplex UltraRed, ThermoFisher Scientific
To the assay buffer was added HRP/AMP in each well to concentrations equal to those in above, following which hydrogen peroxide solution (diluted from 3% hydrogen peroxide solution into a 20 mM stock) was added, in a 1 in 3 dilution series with final concentrations starting from 3 mM.
Negative control wells contained either 100% buffer or as above with no hydrogen peroxide solution.

H3K4me2 in HCT116 cells = assay: Histone methylation H3K4me2 by western blot; format: cell-based, human; conditions: HCT116, 0.1–10 μM, 24 hours, H3K4me2 antibody
Method: We next screened 25–33 and SP2509 over a concentration range of 0.1–10 μM in HCT116 cells (obtained from ATCC, CCL-247) and determined LSD1 abundance after 24 hours with an antibody for LSD1 (Fig. S4 ^†). […] Using the same conditions, we also determined the effects of SP2509, 25, 27, 28, 30 and 31 on histone H3 lysine 4 dimethyl (H3K4me2) a validated substrate for LSD1 using a specific antibody for H3K4me2 (Fig. S4 ^†).
Compounds 39–41, 49, 52 and 54 were screened for LSD1 degradation in HCT116 cells using a specific antibody for LSD1. This was performed side-by-side with TCP. Compounds were tested at concentration ranges of 0.2–20 μM and LSD1 abundance was quantified at 24 hours (Fig. S5 ^†). 49, 52 and 54 were also evaluated at 48 and 72 hours. […] We also determined the effects of these compounds on the histone methyl marker H3K4me2 (Fig. S5 and S6 ^†).
2.5 Protocols for LSD1 degradation and histone methylation in HCT116 cells HCT116 human colon carcinoma cells were grown in Dulbecco’s Modified Eagle Medium (DMEM) supplemented with Fetal Bovine Serum (FBS, 10% final concentration) and 1x glutamine/penicillin/streptomycin. Cells were incubated at 37 °C and 5% CO2. Cells were treated with compounds (0.1-20 µM) with a final DMSO volume of 0.04%. DMSO (0.04%) treated and untreated (WT) cells were included as controls.
HCT116 cells were seeded into six well plates (400000 cells per well) and after requisite compound treatment time (24h, 48h, 72h) cells were harvested and either snap-frozen in liquid nitrogen or lysed in lysis buffer (50mM Tris-HCl, 150 mM NaCl, 0.5% NP-40, 0.5% Triton X-100 + protease inhibitor) on ice for 30 mins. This was centrifuged (15000 rpm, 4 °C, 15 mins) and the supernatant collected.
H2SO4 (0.4 M, equal volume) was added to the pellets for histone extraction and the tubes incubated overnight at 4 °C. Following this, the histone extract was centrifuged (15000 rpm, 4 °C, 15 mins) and the supernatant collected. Protein concentrations of whole cell extract were quantified via Bradford Assay using BIO-RAD Protein Assay Dye Reagent Concentrate.
Western blots were run on NuPAGE 4-12% Bis-Tris gels, with 30 µg of protein (whole cell extract) or an equivalent volume of histone extract loaded per lane, with all extracts dyed with 4x NuPAGE LDS Sample Buffer. PageRuler Plus Prestained Ladder was used as a reference. Gel electrophoresis was carried out at 140 V for 60-90 mins, following which the proteins were transferred onto nitrocellulose membrane at 30 V for 60 mins. Membranes were blocked in LI-COR Intercept Blocking Buffer overnight at RT on a roller, following which the membrane was probed with primary antibodies for 1 h at RT. The membrane was washed with PBS + 0.1% Tween (3 x 10 mins), then incubated with secondary antibodies for 50 mins at RT. The membrane was washed again (PBS Tween 2 x 10 mins, PBS 1 x 10 mins) following which the blot was visualised with the Odyssey Infrared Imaging System. Image processing and quantification was performed with ImageStudio Lite. […]
a-tubulin (mouse) – Sigma, t5168 (1:10000 dilution)

[3] = LSD1 enzymatic activity, complex 50 nM, HRP assay, SP2509 value is mean of three sets, read-out: LSD1-HDAC1-CoREST IC50
[4] = per parallel set, each set with SP2509 as reference standard, read-out: IC50 from dose response curves (Figure S1)

## C/C(=N\NC(=O)c1cccc(S(=O)(=O)N2CCOCC2)c1)c1cc(OCCOCCC(=O)OC(C)(C)C)ccc1O [compound 13]
[1]; [3]
  IC50: 0.159 µM

## O=C(CCCCCCCCCCC(=O)NC1CC1c1ccccc1)NCCNc1cccc2c1C(=O)N(C1CCC(=O)NC1=O)C2=O (stereo not shown) [compound 41]
[2]; complex 50 nM
  LSD1 inhibition at 50 μM: not LSD1 inhibitors

## C/C(=N\NC(=O)c1cccc(S(=O)(=O)N2CCN(CCOCCC(=O)OC(C)(C)C)CC2)c1)c1cc(Cl)ccc1O [compound 15]
[1]; [3]
  IC50: 0.108 µM

## Cc1ncsc1-c1ccc(CNC(=O)[C@@H]2C[C@@H](O)CN2C(=O)[C@@H](NC(=O)CCCCC(=O)NC2CC2c2ccccc2)C(C)(C)C)cc1 (stereo partly shown) [compound 38]
[2]; complex 50 nM
  LSD1 inhibition at 50 μM: modest inhibition

## C/C(=N\NC(=O)c1cccc(S(=O)(=O)N2CCOCC2)c1)c1ccc(OCCOCCC(=O)OC(C)(C)C)cc1O [compound 12]
[1]; [3]
  IC50: 0.113 µM

## COc1ccc(C(C)=NNC(=O)c2cccc(S(=O)(=O)N3CCOCC3)c2)c(O)c1 [compound 10]
[1]; [3]
  IC50: 0.0124 µM
[1]; [4]
  IC50: 0.012 µM

## C/C(=N\NC(=O)c1cccc(S(=O)(=O)N2CCOCC2)c1)c1cc(OCCOCCC(=O)N[C@H](C(=O)N2C[C@H](O)C[C@H]2C(=O)NCc2ccc(-c3scnc3C)cc2)C(C)(C)C)ccc1O [compound 25]
H3K4me2 in HCT116 cells
  H3K4me2 abundance: no increase in H3K4me2

## C/C(=N\NC(=O)c1cccc(S(=O)(=O)N2CCOCC2)c1)c1cc(OCCOCCC(=O)NCCNc2cccc3c2C(=O)N(C2CCC(=O)NC2=O)C3=O)ccc1O (stereo not shown) [compound 30]
H3K4me2 in HCT116 cells
  H3K4me2 abundance: no increase in H3K4me2

## C/C(=N\NC(=O)c1cccc(S(=O)(=O)N2CCNCC2)c1)c1cc(Cl)ccc1O [compound 14]
[1]; [3]
  IC50: 0.0206 µM
[1]; [4]
  IC50: 0.021 µM

## O=C(CCCCC(=O)NC1CC1c1ccccc1)NCCNc1cccc2c1C(=O)N(C1CCC(=O)NC1=O)C2=O (stereo not shown) [compound 40]
[2]; complex 50 nM
  LSD1 inhibition at 50 μM: not LSD1 inhibitors

## COc1ccc(O)c(C=NNC(=O)c2cccc(S(=O)(=O)N3CCOCC3)c2)c1 [compound 9]
[1]; [3]
  IC50: 0.0128 µM
[1]; [4]
  IC50: 0.013 µM

## COc1ccc(O)c(C(C)=NNC(=O)c2cccc(S(=O)(=O)N3CCOCC3)c2)c1 [compound 8]
[1]; [3]
  IC50: 0.0145 µM
[1]; [4]
  IC50: 0.015 µM

## C/C(=N\NC(=O)c1cccc(S(=O)(=O)N2CCOCC2)c1)c1cc(OCCCCCCCC(=O)N[C@H](C(=O)N2C[C@H](O)C[C@H]2C(=O)NCc2ccc(-c3scnc3C)cc2)C(C)(C)C)ccc1O [compound 28]
H3K4me2 in HCT116 cells
  H3K4me2 abundance: no increase in H3K4me2

## C/C(=N\NC(=O)c1cccc(S(=O)(=O)N2CCOCC2)c1)c1cc(OCCOCCOCCC(=O)NCCNc2cccc3c2C(=O)N(C2CCC(=O)NC2=O)C3=O)ccc1O (stereo not shown) [compound 31]
H3K4me2 in HCT116 cells
  H3K4me2 abundance: no increase in H3K4me2

## COC(=O)c1ccc([C@@H]2C[C@H]2N)cc1 [compound 55]
[2]; complex 50 nM, mean ± SD from three replicates
  IC50: 0.094 µM
[2]; ratio of IC50 values
  enhancement in LSD1 inhibition compared to TCP: approximately 100 fold

## CC(=NNC(=O)c1cccc(S(=O)(=O)N2CCN(C(=O)OC(C)(C)C)CC2)c1)c1cc(Cl)ccc1O [compound 11]
[1]; LSD1 enzymatic activity, complex 50 nM, HRP assay, read-out: LSD1-HDAC1-CoREST IC50
  IC50: > 20 µM

## Cc1ncsc1-c1ccc(CNC(=O)[C@@H]2C[C@@H](O)CN2C(=O)[C@@H](NC(=O)CCCCCCCCCCC(=O)NC2CC2c2ccccc2)C(C)(C)C)cc1 (stereo partly shown) [compound 39]
[2]; complex 50 nM
  LSD1 inhibition at 50 μM: not LSD1 inhibitors
